Results reported in US12209071B2, “Triazine derivatives for treating diseases relating to neurotrophins” (AlzeCure Pharma AB, priority 2018, dated 2025).

Tests used:
[1] = target: T1, FGFR1 (Homo sapiens, UniProt P11362); experiment: Enzyme Fragment Complementation cell-based assay, FGFR1; settings: cryopreserved U2OS-cells expressing FGFR1; ligand 10 ng/mL; 3 hours incubation
T1 construct: expressed in transfected cells; host or cells: U2OS (cryopreserved)
From the text: (§1) A high throughput cell-based screen has been used to identify positive modulators of TrkA, TrkB and TrkC. The screen involves the use of cell-based assay overexpressing TrkA, TrkB or TrkC. The purpose of the assay is to identify compounds that modulate neurotrophin signalling (Forsell et al 2012). The assay can be used in inhibitor mode using a high concentration of ligand, in modulator mode using an intermediate concentration and in agonist mode using a low concentration of ligand.
(§2) The assay uses Enzyme Fragment Complementation (EFC) technique, which is a proximity-based assay. Briefly, cells used in this assay over-express two fusion proteins, i.e. the receptor, which can be either one of TrkA, TrkB, TrkC, IGF1R or FGFR1, fused to a small peptide of beta-galactosidase and an adaptor protein, i.e. SHC1 (or any other Trk-adaptor protein) fused to the major part of beta-galactosidase. […] The proximity between the small activating peptide on the receptor and the major part of beta-galactosidase on the adaptor protein leads to an active beta-galactosidase enzyme. The activation of the receptor is quantified by measuring the amount of active beta-galactosidase by its conversion of a non-luminescent substrate into a luminescent product.
(§3) U2OS-cells, over-expressing TrkA or TrkB or TrkC, are plated in 96- or 384-well plates and incubated overnight. Alternatively, cryopreserved HEK293-cells expressing IGFR1 or cryopreserved U2OS-cells expressing FGFR1 were plated in 96- or 384-well plates. On the following day, test compound was pre-mixed with ligand (NGF, BDNF, NT-3, IGF-1 or basic fibroblast growth factor (bFGF(FGF-2))) and the ligand-compound mixture is then added to the cells to yield a final ligand concentration of 10 ng/mL. After 3 hours of incubation at room temperature, the incubation is stopped by the addition of a beta-galactosidase substrate mixture containing detergents. The substrate mixture is incubated for 60 minutes at ambient temperature. The luminescence is thereafter read by the use of a plate reader.

[2] = target: T2, IGF1R (Homo sapiens, UniProt P08069); experiment: Enzyme Fragment Complementation cell-based assay, IGF1R; settings: cryopreserved HEK293-cells expressing IGFR1; ligand 10 ng/mL; 3 hours incubation
T2 construct: expressed in transfected cells; host or cells: HEK293 (cryopreserved)
T2 sequence (P08069 31-736 limits assumed): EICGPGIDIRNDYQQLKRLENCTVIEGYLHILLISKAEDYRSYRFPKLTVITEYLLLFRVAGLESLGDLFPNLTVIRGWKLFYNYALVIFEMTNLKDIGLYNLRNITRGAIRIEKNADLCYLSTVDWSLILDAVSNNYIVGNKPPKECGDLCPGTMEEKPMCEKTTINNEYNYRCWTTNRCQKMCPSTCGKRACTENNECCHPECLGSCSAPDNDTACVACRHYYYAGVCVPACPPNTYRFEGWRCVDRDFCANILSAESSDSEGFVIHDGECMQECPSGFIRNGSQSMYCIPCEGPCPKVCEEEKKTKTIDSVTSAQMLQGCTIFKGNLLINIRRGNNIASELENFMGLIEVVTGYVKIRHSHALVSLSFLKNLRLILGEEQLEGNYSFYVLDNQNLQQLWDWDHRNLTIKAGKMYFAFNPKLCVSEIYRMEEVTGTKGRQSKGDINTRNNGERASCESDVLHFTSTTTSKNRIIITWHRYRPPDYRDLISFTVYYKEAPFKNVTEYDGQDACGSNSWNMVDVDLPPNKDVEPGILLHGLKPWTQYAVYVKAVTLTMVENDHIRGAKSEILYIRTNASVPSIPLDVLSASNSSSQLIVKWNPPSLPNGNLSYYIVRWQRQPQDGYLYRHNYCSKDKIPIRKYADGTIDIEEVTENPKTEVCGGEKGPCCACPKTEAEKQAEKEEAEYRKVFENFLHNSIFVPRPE
T2 sequence (P08069 741-1367 limits assumed): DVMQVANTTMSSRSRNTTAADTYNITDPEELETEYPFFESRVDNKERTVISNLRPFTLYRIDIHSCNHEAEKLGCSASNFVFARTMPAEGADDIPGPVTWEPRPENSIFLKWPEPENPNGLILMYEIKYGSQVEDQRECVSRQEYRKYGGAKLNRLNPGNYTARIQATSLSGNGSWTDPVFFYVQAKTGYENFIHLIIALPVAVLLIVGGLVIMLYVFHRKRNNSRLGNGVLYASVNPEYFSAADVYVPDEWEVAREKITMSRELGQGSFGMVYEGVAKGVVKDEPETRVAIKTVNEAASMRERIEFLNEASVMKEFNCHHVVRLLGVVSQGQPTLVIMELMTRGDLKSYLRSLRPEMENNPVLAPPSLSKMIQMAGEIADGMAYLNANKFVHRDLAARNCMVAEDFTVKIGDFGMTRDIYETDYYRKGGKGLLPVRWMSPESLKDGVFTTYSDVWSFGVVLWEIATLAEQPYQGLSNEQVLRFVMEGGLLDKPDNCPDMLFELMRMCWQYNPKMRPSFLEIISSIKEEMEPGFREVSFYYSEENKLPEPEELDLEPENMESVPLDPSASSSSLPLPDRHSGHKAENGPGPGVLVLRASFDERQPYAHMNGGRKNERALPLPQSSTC
From the text: as §1, §2, §3

[3] = target: T3, TrkB (Homo sapiens, UniProt Q16620); experiment: Enzyme Fragment Complementation cell-based assay, TrkB; settings: U2OS-cells over-expressing TrkB; ligand 10 ng/mL; 3 hours incubation
T3 construct: expressed in transfected cells; host or cells: U2OS
T3 sequence (Q16620 32-822): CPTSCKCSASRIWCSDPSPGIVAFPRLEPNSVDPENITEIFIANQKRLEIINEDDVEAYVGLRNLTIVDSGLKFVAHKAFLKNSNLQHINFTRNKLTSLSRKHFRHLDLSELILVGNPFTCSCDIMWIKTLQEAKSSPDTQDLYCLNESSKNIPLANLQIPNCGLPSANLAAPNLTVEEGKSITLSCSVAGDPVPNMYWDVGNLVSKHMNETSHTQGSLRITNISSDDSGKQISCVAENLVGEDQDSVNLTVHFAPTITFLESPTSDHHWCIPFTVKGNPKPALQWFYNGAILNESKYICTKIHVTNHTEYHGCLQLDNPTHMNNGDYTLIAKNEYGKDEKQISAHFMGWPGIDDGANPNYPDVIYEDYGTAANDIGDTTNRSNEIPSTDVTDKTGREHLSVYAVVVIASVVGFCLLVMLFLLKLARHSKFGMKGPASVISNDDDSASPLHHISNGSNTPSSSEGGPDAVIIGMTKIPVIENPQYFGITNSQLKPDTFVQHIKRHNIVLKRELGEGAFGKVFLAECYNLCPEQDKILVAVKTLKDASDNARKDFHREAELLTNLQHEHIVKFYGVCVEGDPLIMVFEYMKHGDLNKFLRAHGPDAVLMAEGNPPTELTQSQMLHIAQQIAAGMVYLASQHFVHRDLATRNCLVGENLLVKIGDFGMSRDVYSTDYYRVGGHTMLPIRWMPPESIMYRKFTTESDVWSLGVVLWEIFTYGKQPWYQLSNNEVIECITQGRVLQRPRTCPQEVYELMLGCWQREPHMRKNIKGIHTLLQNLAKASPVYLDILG
From the text: as §1, §2, §3

[4] = target: T4, TrkA (Homo sapiens, UniProt P04629); experiment: Enzyme Fragment Complementation cell-based assay, TrkA; settings: U2OS-cells over-expressing TrkA; ligand 10 ng/mL; 3 hours incubation
T4 construct: expressed in transfected cells; host or cells: U2OS
T4 sequence (P04629 33-796): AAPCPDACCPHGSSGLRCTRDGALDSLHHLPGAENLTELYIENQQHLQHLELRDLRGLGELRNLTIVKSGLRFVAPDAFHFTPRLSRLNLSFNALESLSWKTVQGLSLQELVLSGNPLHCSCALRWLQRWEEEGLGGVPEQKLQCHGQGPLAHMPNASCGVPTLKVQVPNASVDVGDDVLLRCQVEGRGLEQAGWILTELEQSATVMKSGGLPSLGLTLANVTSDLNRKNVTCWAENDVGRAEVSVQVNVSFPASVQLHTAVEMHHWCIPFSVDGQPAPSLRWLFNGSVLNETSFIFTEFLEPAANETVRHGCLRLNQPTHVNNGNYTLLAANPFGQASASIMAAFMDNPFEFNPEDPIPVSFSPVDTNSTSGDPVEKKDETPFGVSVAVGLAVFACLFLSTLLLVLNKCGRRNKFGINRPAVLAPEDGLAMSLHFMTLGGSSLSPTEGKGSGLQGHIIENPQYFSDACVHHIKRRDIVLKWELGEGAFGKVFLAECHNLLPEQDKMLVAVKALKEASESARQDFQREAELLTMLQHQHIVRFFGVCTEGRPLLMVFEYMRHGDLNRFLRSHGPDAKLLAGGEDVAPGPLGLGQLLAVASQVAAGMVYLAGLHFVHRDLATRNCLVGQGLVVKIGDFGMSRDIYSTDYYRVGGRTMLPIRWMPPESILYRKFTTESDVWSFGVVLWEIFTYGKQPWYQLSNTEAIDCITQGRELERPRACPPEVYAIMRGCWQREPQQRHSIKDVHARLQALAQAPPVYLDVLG
From the text: as §1, §2, §3

[5] = test system: mice treated with scopolamine; experiment: Passive avoidance task; assay type: in vivo; settings: C57/Bl6 mice; s.c. once per day for 4 days prior to PA training; scopolamine 0.3 mg/kg s.c. 30 min prior to training; FIG. 1
Description: Passive avoidance (PA) is an aversive learning task based on classical (Pavlovian) fear conditioning that allows for analysis of both facilitation and impairment of memory function by adjusting the unconditioned stimulus, i.e. the electrical foot shock. Commonly a cognitive-impairing agent is administered to the animals to mimic the neurochemical disturbances present in various cognitive disorders e.g. cholinergic (scopolamine) and glutamatergic (MK-801) deficits.
Prior to testing, the animals are brought to the experimental room where they are allowed to habituate for 60 min. The test is conducted using a modified shuttle box with two communicating compartments of equal size with a small sliding door built into the separating wall and a stainless-steel bar floor. One of the compartments is not illuminated and thus black whereas the other compartment (the light one) is illuminated by an electric bulb, installed on the top of a plexiglass cover. The PA training is conducted in a single session. […] Latency to cross over into the dark compartment (training latency) is recorded. […] The latency to cross over into the dark compartment with all four feet is measured (retention latency) as well as time in bright compartment and a number of other relevant parameters (e.g. number of visits in the dark compartment). […]

[6] = target: T5, TrkC (Homo sapiens, UniProt Q16288); experiment: Enzyme Fragment Complementation cell-based assay, TrkC; settings: U2OS-cells over-expressing TrkC; ligand 10 ng/mL; 3 hours incubation
T5 construct: expressed in transfected cells; host or cells: U2OS
T5 sequence (Q16288 32-839): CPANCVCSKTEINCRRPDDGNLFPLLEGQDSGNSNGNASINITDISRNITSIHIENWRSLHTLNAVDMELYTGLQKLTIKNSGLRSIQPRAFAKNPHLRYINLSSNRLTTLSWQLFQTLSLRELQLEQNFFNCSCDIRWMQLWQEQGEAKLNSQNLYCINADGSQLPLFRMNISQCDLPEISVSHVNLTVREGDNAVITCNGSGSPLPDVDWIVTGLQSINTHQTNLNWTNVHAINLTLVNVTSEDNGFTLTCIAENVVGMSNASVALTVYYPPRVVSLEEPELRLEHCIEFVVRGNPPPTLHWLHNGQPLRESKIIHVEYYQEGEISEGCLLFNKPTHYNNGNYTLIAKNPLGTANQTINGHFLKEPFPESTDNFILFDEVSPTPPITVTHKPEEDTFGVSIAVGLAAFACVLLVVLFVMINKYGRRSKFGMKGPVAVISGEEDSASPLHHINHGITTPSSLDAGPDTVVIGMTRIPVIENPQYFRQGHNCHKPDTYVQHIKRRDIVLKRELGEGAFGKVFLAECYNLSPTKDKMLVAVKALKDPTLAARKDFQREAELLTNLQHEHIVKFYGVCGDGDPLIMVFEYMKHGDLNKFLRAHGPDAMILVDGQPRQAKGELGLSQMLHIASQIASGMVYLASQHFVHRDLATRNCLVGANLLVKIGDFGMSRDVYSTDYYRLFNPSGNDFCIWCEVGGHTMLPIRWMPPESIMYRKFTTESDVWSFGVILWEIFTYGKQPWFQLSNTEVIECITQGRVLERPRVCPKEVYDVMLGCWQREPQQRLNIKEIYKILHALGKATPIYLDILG
From the text: as §1, §2, §3

[7] = test system: ephrin type-B receptor 2 (EphB2); settings: Suzuki et al., FEBS Open Bio 2016; cited from earlier work

T1 sequence (P11362 22-822): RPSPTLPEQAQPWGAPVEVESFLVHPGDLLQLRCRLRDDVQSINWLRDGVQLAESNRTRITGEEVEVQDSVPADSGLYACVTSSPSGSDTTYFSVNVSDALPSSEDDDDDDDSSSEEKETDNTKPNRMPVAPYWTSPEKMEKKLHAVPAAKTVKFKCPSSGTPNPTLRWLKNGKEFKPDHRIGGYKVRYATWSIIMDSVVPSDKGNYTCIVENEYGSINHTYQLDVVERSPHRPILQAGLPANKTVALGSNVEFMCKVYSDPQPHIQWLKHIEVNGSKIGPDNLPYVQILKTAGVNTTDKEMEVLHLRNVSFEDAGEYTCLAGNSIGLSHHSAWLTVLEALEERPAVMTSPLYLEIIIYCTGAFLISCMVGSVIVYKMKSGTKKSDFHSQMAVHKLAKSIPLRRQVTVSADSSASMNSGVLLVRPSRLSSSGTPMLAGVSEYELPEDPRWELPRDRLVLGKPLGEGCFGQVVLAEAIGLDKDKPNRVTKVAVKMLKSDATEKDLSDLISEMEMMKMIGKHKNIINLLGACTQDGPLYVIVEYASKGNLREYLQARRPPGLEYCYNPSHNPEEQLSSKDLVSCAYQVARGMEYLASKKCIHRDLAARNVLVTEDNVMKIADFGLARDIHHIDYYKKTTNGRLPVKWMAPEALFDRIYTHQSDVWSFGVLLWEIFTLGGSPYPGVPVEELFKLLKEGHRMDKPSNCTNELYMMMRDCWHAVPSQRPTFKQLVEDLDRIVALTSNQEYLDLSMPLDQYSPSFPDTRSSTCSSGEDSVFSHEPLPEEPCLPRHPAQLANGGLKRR

Row | Structure (SMILES) | EC50 [1] | EC50 [2] | EC50 [3] | EC50 [4] | retention latency within the bright area (cognitive function) [5] | EC50 [6] | inhibition of binding of β-amyloid oligomers to EphB2 [7]
1 | Cc1cc(-n2c(=O)[nH]c(=O)n(-c3ccccc3)c2=O)ccc1Oc1ccccc1 [Example 5, 1-(3-methyl-4-phenoxyphenyl)-3-phenyl-1,3,5-triazinane-2,4,6-trione] | 290 nM | 250 nM | 390 nM | 340 nM | increased retention latency | – | –
2 | COc1cc(-n2c(=O)[nH]c(=O)n(-c3ccccc3)c2=O)ccc1Oc1ccccc1 [Example 11, 1-(3-methoxy-4-phenoxyphenyl)-3-phenyl-1,3,5-triazinane-2,4,6-trione] | 340 nM | 220 nM | 450 nM | 320 nM | – | – | –
3 | O=c1[nH]c(=O)n(-c2ccc(OCc3ccccc3)cc2)c(=O)n1-c1ccccc1 [Example 6, 1-[4-(benzyloxy)phenyl]-3-phenyl-1,3,5-triazinane-2,4,6-trione] | – | 4400 nM | – | 4400 nM | – | – | –
4 | N#Cc1cc(-n2c(=O)[nH]c(=O)n(-c3ccccc3)c2=O)ccc1Oc1ccccc1 [Example 12, 2-phenoxy-5-(2,4,6-trioxo-3-phenyl-1,3,5-triazinan-1-yl)benzonitrile] | 4700 nM | – | 2400 nM | 5900 nM | – | – | –
5 | O=c1[nH]c(=O)n(-c2ccc(Oc3ccc(Cl)cc3)cc2)c(=O)n1-c1ccccc1 [Example 7, 1-[4-(4-chlorophenoxy)phenyl]-3-phenyl-1,3,5-triazinane-2,4,6-trione] | – | 2600 nM | – | 3900 nM | – | – | –
6 | COc1cc(Oc2ccccc2)ccc1-n1c(=O)[nH]c(=O)n(-c2ccccc2)c1=O [Example 9, 1-(2-methoxy-4-phenoxyphenyl)-3-phenyl-1,3,5-triazinane-2,4,6-trione] | 170 nM | 270 nM | 270 nM | 230 nM | – | – | –
7 | O=c1[nH]c(=O)n(-c2ccc(Oc3ccccc3)cc2)c(=O)n1-c1ccccc1 [Example 1, 1-(4-phenoxyphenyl)-3-phenyl-1,3,5-triazinane-2,4,6-trione] | 890 nM | 1800 nM | 1400 nM | 1300 nM | – | 1400 nM | –
8 | O=c1[nH]c(=O)n(-c2ccc(N3CCOCC3)cc2)c(=O)n1-c1ccc(Oc2ccccc2)cc1 [Example 10, 1-[4-(morpholin-4-yl)phenyl]-3-(4-phenoxyphenyl)-1,3,5-triazinane-2,4,6-trione] | 2800 nM | – | 2200 nM | 1100 nM | – | – | –
9 | COc1cccc(-n2c(=O)[nH]c(=O)n(-c3ccc(Oc4ccccc4)cc3)c2=O)c1 [Example 4, 1-(3-methoxyphenyl)-3-(4-phenoxyphenyl)-1,3,5-triazinane-2,4,6-trione] | 580 nM | 840 nM | 950 nM | 830 nM | – | – | –
10 | Cc1cc(-n2c(=O)[nH]c(=O)n(C)c2=O)ccc1Oc1ccc(SC(F)(F)F)cc1 [toltrazuril, 1-methyl-3-(3-methyl-4-{4-[(trifluoromethyl)sulfanyl]phenoxy}phenyl)-1,3,5-triazinane-2,4,6-trione] | – | – | – | – | – | – | 30%
11 | CCOc1cc(-n2c(=O)[nH]c(=O)n(C)c2=O)ccc1Oc1ccccc1 [Example 21, 1-(3-ethoxy-4-phenoxyphenyl)-3-methyl-1,3,5-triazinane-2,4,6-trione] | – | – | 2300 nM | 2100 nM | – | 1200 nM | –
12 | COCCOc1cc(-n2c(=O)[nH]c(=O)n(C)c2=O)ccc1Oc1ccccc1 [Example 28, 1-[3-(2-methoxyethoxy)-4-phenoxyphenyl]-3-methyl-1,3,5-triazinane-2,4,6-trione] | – | – | 990 nM | 1000 nM | – | 520 nM | –
13 | COCCOc1cc(-n2c(=O)[nH]c(=O)n(-c3cccc(C)c3)c2=O)ccc1Oc1ccccc1 [Example 57, 1-[3-(2-methoxyethoxy)-4-phenoxyphenyl]-3-(3-methylphenyl)-1,3,5-triazinane-2,4,6-trione] | – | – | 120 nM | 180 nM | – | 90 nM | –
14 | N#Cc1ccc(Oc2ccc(-n3c(=O)[nH]c(=O)n(-c4ccccc4)c3=O)cc2)cc1 [Example 8, 4-[4-(2,4,6-trioxo-3-phenyl-1,3,5-triazinan-1-yl)phenoxy]benzonitrile] | – | 2200 nM | – | 1600 nM | – | – | –
15 | Cc1cn(-c2ccccc2)c2ccc(-n3c(=O)[nH]c(=O)n(-c4ccccc4)c3=O)cc12 [Example 35, 1-(3-Methyl-1-phenyl-1H-indol-5-yl)-3-phenyl-1,3,5-triazinane-2,4,6-trione] | – | – | 260 nM | 980 nM | – | 500 nM | –
16 | Cn1c(=O)[nH]c(=O)n(-c2ccc(Oc3ccccc3)c(OCc3ccccc3)c2)c1=O [Example 30, 1-[3-(benzyloxy)-4-phenoxyphenyl]-3-methyl-1,3,5-triazinane-2,4,6-trione] | – | – | 7500 nM | 1100 nM | – | 890 nM | –
17 | COCCOc1cc(-n2c(=O)[nH]c(=O)n(-c3ccc(Cl)cc3)c2=O)ccc1Oc1ccccc1 [Example 59, 1-(4-chlorophenyl)-3-[3-(2-methoxyethoxy)-4-phenoxyphenyl]-1,3,5-triazinane-2,4,6-trione] | – | – | 460 nM | 480 nM | – | 330 nM | –
18 | Cc1cc(-n2c(=O)[nH]c(=O)n(-c3cccc4[nH]ccc34)c2=O)ccc1Oc1ccccc1 [Example 49, 1-(1H-indol-4-yl)-3-(3-methyl-4-phenoxyphenyl)-1,3,5-triazinane-2,4,6-trione] | – | – | 790 nM | 190 nM | – | 2000 nM | –
